Consider 3 compounds from the NIST ThermoML archive (doi:10.1016/j.jct.2008.03.015).

The conditions of this series: Crystal 1.

± gives the expanded uncertainty stated by the source.

For the compound `CCCCCCCCCCCCCCCCO` [1-hexadecanol], the Normal melting temperature amounted to 49.76 ± 0.62 °C. The figure for `CCCCCCCCCCCCCCCCCCO` [1-octadecanol] is 58.38 ± 0.62 °C; for `CCCCCCCCCCCCO` [dodecan-1-ol] it is 24.07 ± 0.62 °C.
